Reference: the supplement of paper PMC10307832

What was measured:
Assay in all cases: relative viability (nuclei count vs DMSO), 5 days (fraction); higher = more cells survive
MLN4924 + Olaparib = compound: NS(=O)(=O)OC[C@@H]1C[C@@H](n2ccc3c(N[C@H]4CCc5ccccc54)ncnc32)C[C@@H]1O [MLN4924] + O=C(c1cc(Cc2n[nH]c(=O)c3ccccc23)ccc1F)N1CCN(C(=O)C2CC2)CC1 [Olaparib] (partner 8 µM)
In short: (§1)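 Lung cancer cell lines in 1536-well plates were dosed by pin tool the day after seeding, either with one drug alone or with a fixed anchor-drug dose plus five library-drug doses (not always all listed) in √10 steps. After 5 days, cells were fixed and their nuclei stained in one step (final 0.05% Triton X-100, 1% formaldehyde, 1 ug/ml Hoechst), then counted on 4× images. Relative viability is the nuclei count in treated wells divided by that in vehicle wells. Values are medians of duplicate plates.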

MLN4924 + Phenformin = compound: NS(=O)(=O)OC[C@@H]1C[C@@H](n2ccc3c(N[C@H]4CCc5ccccc54)ncnc32)C[C@@H]1O [MLN4924] + N=C(N)NC(=N)NCCc1ccccc1 [Phenformin] (partner 250 µM)
In short: as §1

MLN4924 + Navitoclax = compound: NS(=O)(=O)OC[C@@H]1C[C@@H](n2ccc3c(N[C@H]4CCc5ccccc54)ncnc32)C[C@@H]1O [MLN4924] + CC1(C)CCC(c2ccc(Cl)cc2)=C(CN2CCN(c3ccc(C(=O)NS(=O)(=O)c4ccc(N[C@H](CCN5CCOCC5)CSc5ccccc5)c(S(=O)(=O)C(F)(F)F)c4)cc3)CC2)C1 [Navitoclax] (partner 0.5 µM)
In short: as §1

Carboplatin + Trametinib = compound: C1CC(C1)(C(=O)O)C(=O)O.[NH2-].[NH2-].[Pt+2] [Carboplatin] + CC(=O)Nc1cccc(-n2c(=O)n(C3CC3)c(=O)c3c(Nc4ccc(I)cc4F)n(C)c(=O)c(C)c32)c1 [Trametinib] (partner 0.02 µM)
In short: as §1

Row | Cell Line | relative viability (MLN4924 + Olaparib; first compound 0.04 µM) | relative viability (MLN4924 + Olaparib; first compound 0.1265 µM) | relative viability (MLN4924 + Olaparib; first compound 0.4 µM) | relative viability (MLN4924 + Olaparib; first compound 1.265 µM) | relative viability (MLN4924 + Olaparib; first compound 4 µM) | relative viability (MLN4924 + Phenformin; first compound 0.04 µM) | relative viability (MLN4924 + Phenformin; first compound 0.1265 µM) | relative viability (MLN4924 + Phenformin; first compound 0.4 µM) | relative viability (MLN4924 + Phenformin; first compound 1.265 µM) | relative viability (MLN4924 + Phenformin; first compound 4 µM) | relative viability (MLN4924 + Navitoclax; first compound 0.04 µM) | relative viability (MLN4924 + Navitoclax; first compound 0.1265 µM) | relative viability (MLN4924 + Navitoclax; first compound 0.4 µM) | relative viability (MLN4924 + Navitoclax; first compound 1.265 µM) | relative viability (MLN4924 + Navitoclax; first compound 4 µM) | relative viability (Carboplatin + Trametinib; first compound 0.08 µM) | relative viability (Carboplatin + Trametinib; first compound 0.253 µM) | relative viability (Carboplatin + Trametinib; first compound 0.8 µM) | relative viability (Carboplatin + Trametinib; first compound 2.53 µM) | relative viability (Carboplatin + Trametinib; first compound 8 µM)
1 | NCI-H2009 | 0.449 | 0.382 | 0.143 | 0.146 | 0.0556 | 0.24 | 0.184 | 0.156 | 0.0904 | 0.0791 | 0.809 | 0.365 | 0.293 | 0.0903 | 0.0793 | 0.346 | 0.295 | 0.243 | 0.249 | 0.238
2 | NCI-H2023 | 0.397 | 0.221 | 0.12 | 0.0617 | 0.0657 | 0.392 | 0.393 | 0.175 | 0.0707 | 0.0769 | 1 | 0.758 | 0.362 | 0.109 | 0.0667 | 0.599 | 0.633 | 0.542 | 0.343 | 0.163
3 | NCI-H2085 | 0.837 | 0.747 | 0.868 | 0.485 | 0.363 | 0.754 | 0.676 | 0.598 | 0.443 | 0.348 | 1.25 | 1.1 | 1.12 | 0.733 | 0.366 | 0.498 | 0.558 | 0.512 | 0.518 | 0.527
4 | NCI-H2087 | 0.552 | 0.54 | 0.281 | 0.159 | 0.0852 | 0.442 | 0.349 | 0.298 | 0.0782 | 0.0942 | 0.923 | 0.682 | 0.379 | 0.177 | 0.132 | 0.242 | 0.257 | 0.171 | 0.198 | 0.175
5 | NCI-H2126 | 0.862 | 0.668 | 0.618 | 0.258 | 0.246 | 0.566 | 0.566 | 0.432 | 0.321 | 0.304 | 0.764 | 0.742 | 0.621 | 0.386 | 0.446 | 0.586 | 0.613 | 0.562 | 0.614 | 0.536
6 | NCI-H2170 | 0.413 | 0.229 | 0.195 | 0.148 | 0.113 | 0.359 | 0.305 | 0.214 | 0.183 | 0.185 | 0.709 | 0.313 | 0.34 | 0.144 | 0.164 | 0.911 | 1.02 | 0.966 | 0.814 | 0.717
7 | NCI-H2228 | 0.486 | 0.532 | 0.279 | 0.109 | 0.162 | 0.327 | 0.38 | 0.194 | 0.134 | 0.146 | – | 1.03 | 0.221 | 0.135 | 0.155 | 0.678 | 0.575 | 0.616 | 0.543 | 0.344
8 | NCI-H2347 | 0.666 | 0.605 | 0.512 | 0.4 | 0.376 | 0.376 | 0.453 | 0.381 | 0.21 | 0.302 | 0.676 | 0.677 | 0.44 | 0.305 | 0.369 | 0.319 | 0.271 | 0.244 | 0.287 | 0.265
9 | NCI-H2405 | 0.748 | 0.524 | 0.323 | 0.239 | 0.231 | 0.403 | 0.446 | 0.362 | 0.284 | 0.306 | 0.874 | 0.702 | 0.273 | 0.13 | 0.171 | 0.752 | 0.661 | 0.635 | 0.633 | 0.606
10 | NCI-H3122 | 0.535 | 0.235 | 0.251 | 0.112 | 0.0876 | 0.315 | 0.274 | 0.169 | 0.131 | 0.136 | 0.929 | 0.448 | 0.262 | 0.171 | 0.164 | 0.227 | 0.259 | 0.251 | 0.251 | 0.226
11 | PC-3 [JPC-3] | 1.16 | 1.05 | 0.298 | 0.436 | 0.452 | 0.482 | 0.482 | 0.404 | 0.323 | 0.341 | 0.785 | 0.788 | 0.66 | 0.321 | 0.419 | 0.781 | 0.67 | 0.628 | 0.616 | 0.65
12 | PC-14 | 0.188 | 0.129 | 0.0764 | 0.0624 | 0.0504 | 0.473 | 0.564 | 0.37 | 0.151 | 0.127 | 0.997 | 0.788 | 0.593 | 0.13 | 0.0891 | 0.785 | 0.751 | 0.692 | 0.407 | 0.14
13 | RERF-LC-KJ | 0.624 | 0.344 | 0.221 | 0.206 | 0.218 | 0.397 | 0.351 | 0.204 | 0.255 | 0.249 | 0.855 | 0.569 | 0.229 | 0.177 | 0.209 | 0.863 | 0.876 | 0.785 | 0.696 | 0.53
14 | SK-LU-1 | 0.493 | 0.433 | 0.256 | 0.157 | 0.172 | 0.514 | 0.558 | 0.22 | 0.0997 | 0.131 | 0.737 | 0.618 | 0.175 | 0.127 | 0.167 | 0.584 | 0.525 | 0.485 | 0.441 | 0.356
15 | SK-MES-1 | 0.653 | 0.545 | 0.305 | 0.158 | 0.234 | 0.555 | 0.444 | 0.309 | 0.202 | 0.2 | 1.04 | 1.04 | 0.62 | 0.199 | 0.166 | 0.645 | 0.469 | 0.524 | 0.556 | 0.565
16 | SW 1573 | 0.486 | 0.303 | 0.108 | 0.0465 | 0.07 | 0.325 | 0.297 | 0.144 | 0.086 | 0.0734 | 0.887 | 1.12 | 0.439 | 0.0613 | 0.0532 | 0.677 | 0.539 | 0.528 | 0.555 | 0.387
